From patent publication US9994617B2, “Modulation of structured polypeptide specificity” (BICYCLE THERAPEUTICS LIMITED, priority 2011, dated 2018)
pIC50, pKi: −log10 of the molar value. Numbered stars: 1 amine (or outer) side, 2 acyl side, 3 side chain; on linkers, the order of the positions; unused ones are H or OH. Bridge positions count the residues as written; N and C are the ends. Peptide text beside a SMILES is read from it. TBMB = c1c(C[*:1])cc(C[*:3])cc1C[*:2]

Legend:
[1] = Rapid plasma stability profiling, method 1 (MALDI-TOF), rat plasma; type: in vitro ADME; conditions: 35% rat plasma, 37 deg C, method 1, qualitative; listed as N-methylation of Arg5
Description: A rapid plasma stability profiling assay was developed that employed mass spectrometric detection (MALDI-TOF, Voyager DE, Applied Biosystems) of the parent mass, until the time when the parent peptide mass was no longer observable. Specifically, 200 uM of peptide was incubated in the presence of 35% rat or human plasma (Sera labs, using citrate as anticoagulant) at 37 deg C, which was supplemented with 1×PBS (derived from a 10×PBS Stock, Sigma). At various time points (i.e. t=0, 3, 24 hrs, henceafter daily up to 10 days), 2 uL of sample was added to 18 uL of 30 mM ammonium bicarbonate in a 1:1 mixture of acetonitrile:H2O. Samples were frozen at −80 deg C until the time of analysis. For mass spectrometric analysis that determines the approximate detection window of the peptide, the acetonitrile:H2O-diluted sample of a given time point was spotted directly (0.7 uL) onto the MALDI plate. Matrix (alpha-cyanocinnamic acid, Sigma, prepared as a saturated solution in 1:1 acetonitrile:water containing 0.1% trifluoroacetic acid) was layered over the sample (1 uL). At a similar laser intensity setting on the MALDI TOF, the time could then be determined until parent peptide was no longer detectable. It should be noted that this is a qualitative assay serves to detect relative changes in plasma stability.

[2] = target: human plasma kallikrein (hPK) (Homo sapiens, UniProt P03952); assay: Enzyme inhibition assay, human plasma kallikrein
[3] = Quantitative plasma stability, method 3 (LC/MS), rat plasma; type: in vitro ADME; conditions: determined quantitatively by LC/MS, read-out: rat plasma halflife (converted)
Description: To obtain plasma stability quantitatively, peptide stock solutions (1 mM in DMSO) were shipped to Biofocus, UK, who performed the analysis. Peptides were diluted to 100 uM with water, and diluted 1:20 in plasma (5 uM final concentration, with the plasma at 95%), sampled as appropriate, precipitated as above, and quantified using a Waters Xevo TQ-MS.

[4] = target: rat plasma kallikrein (rPK) (Rattus norvegicus, UniProt P14272); assay: Enzyme inhibition assay, rat plasma kallikrein
Human factor XIa (hfXIa) = Human factor XIa (hfXIa) (Homo sapiens, UniProt P03951); conditions: highest concentration tested (10 μM), Heinis et al. 2009; cited from earlier work
[5] = target: monkey plasma kallikrein (mPK) (Macaca mulatta, UniProt A0A1D5Q7U7); assay: Inhibition of monkey plasma kallikrein
Sequence of monkey plasma kallikrein (mPK) (A0A1D5Q7U7 391-638): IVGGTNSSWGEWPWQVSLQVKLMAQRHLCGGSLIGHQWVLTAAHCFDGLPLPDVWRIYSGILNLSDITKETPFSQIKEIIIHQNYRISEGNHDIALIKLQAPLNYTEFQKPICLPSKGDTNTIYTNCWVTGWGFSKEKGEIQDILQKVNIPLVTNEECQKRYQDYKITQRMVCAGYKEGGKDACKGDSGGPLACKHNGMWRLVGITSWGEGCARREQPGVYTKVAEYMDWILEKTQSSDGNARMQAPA

Sequence of rat plasma kallikrein (rPK) (P14272 391-638 limits assumed): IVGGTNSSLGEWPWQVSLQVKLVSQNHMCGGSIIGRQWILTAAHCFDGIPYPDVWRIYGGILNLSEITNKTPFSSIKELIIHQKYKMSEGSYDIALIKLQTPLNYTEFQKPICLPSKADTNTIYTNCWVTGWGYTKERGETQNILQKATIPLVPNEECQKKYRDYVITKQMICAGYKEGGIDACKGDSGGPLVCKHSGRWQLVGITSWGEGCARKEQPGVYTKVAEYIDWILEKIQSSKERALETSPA
Sequence of Human factor XIa (hfXIa) (P03951 388-625 limits assumed): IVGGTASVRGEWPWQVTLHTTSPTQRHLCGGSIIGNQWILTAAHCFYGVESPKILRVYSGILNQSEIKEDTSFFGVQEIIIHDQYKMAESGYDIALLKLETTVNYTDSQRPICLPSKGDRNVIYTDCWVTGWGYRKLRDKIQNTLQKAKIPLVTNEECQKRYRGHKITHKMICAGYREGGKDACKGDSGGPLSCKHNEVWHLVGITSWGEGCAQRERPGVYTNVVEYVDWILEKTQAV
Sequence of Human factor XIa (hfXIa) (P03951 19-387 partner limits assumed): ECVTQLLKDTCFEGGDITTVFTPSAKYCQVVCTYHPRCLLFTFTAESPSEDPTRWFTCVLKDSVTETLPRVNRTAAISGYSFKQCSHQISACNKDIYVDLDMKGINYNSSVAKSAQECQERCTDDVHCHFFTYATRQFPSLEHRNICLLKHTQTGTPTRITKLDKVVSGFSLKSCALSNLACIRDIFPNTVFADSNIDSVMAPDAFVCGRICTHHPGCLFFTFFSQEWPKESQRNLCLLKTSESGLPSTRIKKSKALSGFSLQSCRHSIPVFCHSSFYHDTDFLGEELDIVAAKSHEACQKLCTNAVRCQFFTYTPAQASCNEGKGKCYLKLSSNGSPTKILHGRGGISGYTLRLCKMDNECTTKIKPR

Q: What does the source list for `CC(=O)N[C@H]1CSCc2cc3cc(c2)CSC[C@H](NC(=O)[C@H](CCCNC(=N)N)N(C)C(=O)[C@H](C)NC(=O)[C@@H]2CCCN2C(=O)[C@H](Cc2c[nH]c4ccccc24)NC(=O)[C@H](CO)NC1=O)C(=O)N[C@@H](CC(C)C)C(=O)N[C@@H](Cc1c[nH]cn1)C(=O)N[C@@H](CCC(N)=O)C(=O)N[C@@H](CC(=O)O)C(=O)N[C@@H](CC(C)C)C(=O)N[C@H](C(N)=O)CSC3` [Ac-(06-34-18) NMeArg5]?
A: Observable in rat plasma, for days [1]: exceeds the assay time; pKi [2]: 8.46; fold reduction in affinity to kallikrein compared to wildtype peptide ([2]; versus Ac-06-34-18(TMB)-NH2): 20 fold

Q: For `CC(=O)N[C@H]1CSCc2cc3cc(c2)CSC[C@H](NC(=O)[C@H](CCCNC(=N)N)NC(=O)[C@H](C)NC(=O)[C@@H]2CCCN2C(=O)[C@H](Cc2c[nH]c4ccccc24)NC(=O)[C@H](CO)NC1=O)C(=O)N[C@@H](CC(C)C)C(=O)N[C@@H](Cc1c[nH]cn1)C(=O)N[C@@H](CCC(N)=O)C(=O)N[C@@H](CC(=O)O)C(=O)N[C@@H](CC(C)C)C(=O)N[C@H](C(N)=O)CSC3` [Ac-(06-34-18) wildtype], which half-life at 5 uM [3] is on record?
A: ~2 h

Q: And the pIC50 [4]?
A: 8.77

Q: And the pKi [2]?
A: 9.77

Q: What does the source list for `CC(C)C[C@@H]1NC(=O)[C@H](C)NC(=O)[C@H](CCC(=O)O)NC(=O)[C@H](CC(=O)O)NC(=O)[C@H](C)NC(=O)[C@@H]2CCCN2C(=O)[C@@H]2CSCc3cc(cc(c3)CSC[C@@H](C(=O)NCC(N)=O)NC1=O)CSC[C@H](NC(=O)[C@H](C)N)C(=O)N[C@@H](CO)C(=O)N[C@@H](CC(=O)O)C(=O)N[C@@H](CCCNC(=N)N)C(=O)N[C@@H](Cc1ccccc1)C(=O)N[C@@H](CCCNC(=N)N)C(=O)N[C@@H](CC(N)=O)C(=O)N2` [PK15] (H-ACSDRFRNCPADEALCG-NH2; linker 2-9-16 via TBMB)?
A: inhibition of factor XIa (hfXIa) (Human factor XIa (hfXIa)): did not inhibit; pKi [5]: 8.54
